Laboratory results from the NIST ThermoML archive (doi:10.1016/j.jct.2016.05.015).

Tests used:
[1] = 100 kPa, Liquid; for viscosity: Capillary tube (Ostwald / Ubbelohde) method; for speed of sound: Frequency=2 MHz, Linear variable-path acoustic interferometer; for mass density: Vibrating tube method
[2] = xn = mol fraction of the nth substance listed; details: 100 kPa, Liquid, x2 = 0; for viscosity: Capillary tube (Ostwald / Ubbelohde) method; for speed of sound: Frequency=2 MHz, Linear variable-path acoustic interferometer; for mass density: Vibrating tube method

Brc1ccccc1 [bromobenzene]
[1]
Details	mass density [kg/m3]	speed of sound [m/s]	viscosity [mPa·s]
303.15 K	1481.52	1136	0.982
308.15 K	1475.36	1122	0.953
313.15 K	1468.02	1109	0.892
318.15 K	1461.36	1099	0.848

Brc1ccccc1 [bromobenzene] + Nc1cccc(Cl)c1
[2]
Details	mass density [kg/m3]	speed of sound [m/s]	viscosity [mPa·s]
303.15 K	1481.52	1136	0.982
308.15 K	1475.36	1122	0.953
313.15 K	1468.02	1109	0.892
318.15 K	1461.36	1099	0.848

Clc1ccccc1 [chlorobenzene]
[1]
Details	mass density [kg/m3]	speed of sound [m/s]	viscosity [mPa·s]
303.15 K	1095.54	1248.2	0.712
308.15 K	1089.72	1226	0.675
313.15 K	1084.71	1206	0.634
318.15 K	1079.45	1181	0.602

Clc1ccccc1 [chlorobenzene] + Nc1cccc(Cl)c1
[2]
Details	mass density [kg/m3]	speed of sound [m/s]	viscosity [mPa·s]
303.15 K	1095.54	1248.2	0.712
308.15 K	1089.72	1226	0.675
313.15 K	1084.71	1206	0.634
318.15 K	1079.45	1181	0.602

O=[N+]([O-])c1ccccc1 [nitrobenzene]
[1]
Details	mass density [kg/m3]	speed of sound [m/s]	viscosity [mPa·s]
303.15 K	1193.45	1438	1.627
308.15 K	1188.29	1420	1.498
313.15 K	1183.69	–	1.388
318.15 K	1177.32	1385	1.275

O=[N+]([O-])c1ccccc1 [nitrobenzene] + Nc1cccc(Cl)c1
[2]
Details	mass density [kg/m3]	speed of sound [m/s]	viscosity [mPa·s]
303.15 K	1193.45	1438	1.627
308.15 K	1188.29	1420	1.498
313.15 K	1183.69	1402	1.388
318.15 K	1177.32	1385	1.275
